pEC50: −log10 of the molar value.
What follows are compounds tested on HEK293T cells carrying the ATF4 luciferase reporter (assay: ATF4-Luc assay (in vitro model of VWMD)). Conditions: Homo sapiens, HEK-293T, 1 μg/mL tunicamycin, 7 hours, One Glo luminescence.
Type: cell-based
Method: In order to test exemplary compounds of the invention in a cellular context, a stable VWMD cell line was first constructed. The ATF4 reporter was prepared by fusing the human full-length ATF4 5′-UTR (NCBI Accession No. BC022088.2) in front of the firefly luciferase (FLuc) coding sequence lacking the initiator methionine as described in Sidrauski et al (eLife 2013). The construct was used to produce recombinant retroviruses using standard methods and the resulting viral supernatant was used to transduce HEK293T cells, which were then subsequently selected with puromycin to generate a stable cell line.
HEK293T cells carrying the ATF4 luciferase reporter were plated on polylysine coated 384-well plates (Greiner Bio-one) at 30,000 cells per well. Cells were treated the next day with 1 μg/mL tunicamycin and 200 nM of a compound of Formula (I) for 7 hours. Luminescence was measured using One Glo (Promega) as specified by the manufacturer. Cells were maintained in DMEM with L-glutamine supplemented with 10% heat-inactivated FBS (Gibco) and Antibiotic-Antimycotic solution (Gibco).
Table 2 below summarizes the EC50 data obtained using the ATF4-Luc assay for exemplary compounds of the invention.

**Q.** How did the pEC50 turn out when `Cc1ccc(Oc2nnc(C34CC(NC(=O)COc5ccc(Cl)c(F)c5)(C3)C4)o2)cc1C` [Compound 130, 2-(4-chloro-3-fluorophenoxy)-N-{3-[5-(3,4-dimethylphenoxy)-1,3,4-oxadiazol-2-yl]bicyclo[1.1.1]pentan-1-yl}acetamide] was run?
**A.** 6.60 to 7.30

**Q.** `Cc1ncc(OCc2nnc(C34CC(NC(=O)COc5ccc(Cl)c(F)c5)(C3)C4)o2)cc1Cl` [Compound 145, 2-(4-chloro-3-fluorophenoxy)-N-[3-(5-{[(5-chloro-6-methylpyridin-3-yl)oxy]methyl}-1,3,4-oxadiazol-2-yl)bicyclo[1.1.1]pentan-1-yl]acetamide] was tested. Which pEC50 did it give?
**A.** 6.60 to 7.30

**Q.** `N#Cc1ccc(Oc2nnc(C34CC(NC(=O)COc5ccc(Cl)c(F)c5)(C3)C4)o2)cn1` [Compound 119, 2-(4-chloro-3-fluorophenoxy)-N-(3-{5-[(6-cyanopyridin-3-yl)oxy]-1,3,4-oxadiazol-2-yl}bicyclo[1.1.1]pentan-1-yl)acetamide] was tested. Which pEC50 did it give?
**A.** 6.00 to 6.60

**Q.** How did the pEC50 turn out when `O=C(COc1ccc(Cl)c(F)c1)NC12CC(c3nnc(COc4cncc(Cl)c4)o3)(C1)C2` [Compound 148, 2-(4-chloro-3-fluorophenoxy)-N-[3-(5-{[(5-chloropyridin-3-yl)oxy]methyl}-1,3,4-oxadiazol-2-yl)bicyclo[1.1.1]pentan-1-yl]acetamide] was run?
**A.** 6.60 to 7.30

**Q.** `O=C(COc1ccc(Cl)cc1)NC12CC(c3nc(COc4ccc(Cl)cc4)no3)(C1)C2` [Compound 101, 2-(4-chlorophenoxy)-N-(3-{3-[(4-chlorophenoxy)methyl]-1,2,4-oxadiazol-5-yl}bicyclo[1.1.1]pentan-1-yl)acetamide] was tested. Which pEC50 did it give?
**A.** > 7.30

**Q.** `O=C(COc1ccc(Cl)c(Cl)c1)NC12CC(c3nnc(COc4ccc(Cl)cc4)o3)(C1)C2` [Compound 109, N-(3-{5-[(4-chlorophenoxy)methyl]-1,3,4-oxadiazol-2-yl}bicyclo[1.1.1]pentan-1-yl)-2-(3,4-dichlorophenoxy)acetamide] was tested. Which pEC50 did it give?
**A.** > 7.30

**Q.** With `O=C(COc1ccc(Cl)c(F)c1)NC12CC(c3nnc(COc4cncc(C(F)(F)F)c4)o3)(C1)C2` [Compound 122, 2-(4-chloro-3-fluorophenoxy)-N-{3-[5-({[5-(trifluoromethyl)pyridin-3-yl]oxy}methyl)-1,3,4-oxadiazol-2-yl]bicyclo[1.1.1]pentan-1-yl}acetamide] as the compound, how does the pEC50 read?
**A.** 6.60 to 7.30

**Q.** How did the pEC50 turn out when `O=C(COc1ccc(Cl)c(F)c1)NC12CC(c3nnc(COc4ccc(Cl)cc4)[nH]3)(C1)C2` [Compound 132, 2-(4-chloro-3-fluorophenoxy)-N-(3-{5-[(4-chlorophenoxy)methyl]-4H-1,2,4-triazol-3-yl}bicyclo[1.1.1]pentan-1-yl)acetamide] was run?
**A.** > 7.30

**Q.** `O=C(COc1cccc(F)c1)NC12CC(c3nc(COc4ccc(Cl)cc4)no3)(C1)C2` [Compound 107, N-(3-{3-[(4-chlorophenoxy)methyl]-1,2,4-oxadiazol-5-yl}bicyclo[1.1.1]pentan-1-yl)-2-(3-fluorophenoxy)acetamide] was tested. Which pEC50 did it give?
**A.** 6.00 to 6.60

**Q.** `O=C(COc1ccc(Cl)c(F)c1)NC12CC(c3nnc(Oc4ccc(C(F)(F)F)nc4)o3)(C1)C2` [Compound 116, 2-(4-chloro-3-fluorophenoxy)-N-[3-(5-{[6-(trifluoromethyl)pyridin-3-yl]oxy}-1,3,4-oxadiazol-2-yl)bicyclo[1.1.1]pentan-1-yl]acetamide] was tested. Which pEC50 did it give?
**A.** 6.60 to 7.30

**Q.** `O=C(COc1ccc(Cl)c(F)c1)NC12CCC(c3nnc(Oc4ccc(Cl)c(F)c4)o3)(CC1)C(O)C2` (stereo not shown) [Compound 170, 2-(4-chloro-3-fluorophenoxy)-N-{4-[5-(4-chloro-3-fluorophenoxy)-1,3,4-oxadiazol-2-yl]-3-hydroxybicyclo[2.2.2]octan-1-yl}acetamide] was tested. Which pEC50 did it give?
**A.** > 7.30

**Q.** `COc1ccc(OCc2nnc(C34CC(NC(=O)COc5ccc(Cl)c(F)c5)(C3)C4)o2)cn1` [Compound 142, 2-(4-chloro-3-fluorophenoxy)-N-[3-(5-{[(6-methoxypyridin-3-yl)oxy]methyl}-1,3,4-oxadiazol-2-yl)bicyclo[1.1.1]pentan-1-yl]acetamide] was tested. Which pEC50 did it give?
**A.** > 7.30

**Q.** With `Cc1cncc(OCc2nnc(C34CC(NC(=O)COc5ccc(Cl)c(F)c5)(C3)C4)o2)c1` [Compound 143, 2-(4-chloro-3-fluorophenoxy)-N-[3-(5-{[(5-methylpyridin-3-yl)oxy]methyl}-1,3,4-oxadiazol-2-yl)bicyclo[1.1.1]pentan-1-yl]acetamide] as the compound, how does the pEC50 read?
**A.** 6.00 to 6.60

**Q.** `O=C(COc1ccc(Cl)c(F)c1)NC12CCC(c3nc(COc4ccnc(C(F)(F)F)c4)no3)(CC1)C(O)C2` (stereo not shown) [Compound 167, 2-(4-chloro-3-fluorophenoxy)-N-{3-hydroxy-4-[3-({[2-(trifluoromethyl)pyridin-4-yl]oxy}methyl)-1,2,4-oxadiazol-5-yl]bicyclo[2.2.2]octan-1-yl}acetamide] was tested. Which pEC50 did it give?
**A.** 6.60 to 7.30

**Q.** With `CCc1nc(C)ccc1OCc1nnc(C23CC(NC(=O)COc4ccc(Cl)c(F)c4)(C2)C3)o1` [Compound 153, 2-(4-chloro-3-fluorophenoxy)-N-[3-(5-{[(2-ethyl-6-methylpyridin-3-yl)oxy]methyl}-1,3,4-oxadiazol-2-yl)bicyclo[1.1.1]pentan-1-yl]acetamide] as the compound, how does the pEC50 read?
**A.** < 5.70

**Q.** `O=C(COc1ccc(Cl)c(F)c1)NC12CC(c3nnc(COc4ccc(C5CC5)nc4)o3)(C1)C2` [Compound 150, 2-(4-chloro-3-fluorophenoxy)-N-[3-(5-{[(6-cyclopropylpyridin-3-yl)oxy]methyl}-1,3,4-oxadiazol-2-yl)bicyclo[1.1.1]pentan-1-yl]acetamide] was tested. Which pEC50 did it give?
**A.** 5.70 to 6.00

**Q.** How did the pEC50 turn out when `O=C(COc1ccc(Cl)c(F)c1)NC12CC(c3noc(COc4ccc(Cl)cc4)n3)(C1)C2` [Compound 113, 2-(4-chloro-3-fluorophenoxy)-N-(3-{5-[(4-chlorophenoxy)methyl]-1,2,4-oxadiazol-3-yl}bicyclo[1.1.1]pentan-1-yl)acetamide] was run?
**A.** > 7.30

**Q.** `O=C(COc1ccc(Cl)c(F)c1)NC12CC(c3nnc(COc4cncc(F)c4)o3)(C1)C2` [Compound 140, 2-(4-chloro-3-fluorophenoxy)-N-[3-(5-{[(5-fluoropyridin-3-yl)oxy]methyl}-1,3,4-oxadiazol-2-yl)bicyclo[1.1.1]pentan-1-yl]acetamide] was tested. Which pEC50 did it give?
**A.** 6.60 to 7.30

**Q.** With `O=C(COc1ccc(Cl)c(F)c1)NC12CC(c3nc(COc4ccc(Cl)c(F)c4)c[nH]3)(C1)C2` [Compound 168, 2-(4-chloro-3-fluorophenoxy)-N-(3-{4-[(4-chloro-3-fluorophenoxy)methyl]-1H-imidazol-2-yl}bicyclo[1.1.1]pentan-1-yl)acetamide] as the compound, how does the pEC50 read?
**A.** > 7.30

**Q.** How did the pEC50 turn out when `O=C(COc1ccc(Cl)c(F)c1)NC12CC(c3nc(COc4ccc(C(F)(F)F)nc4)c[nH]3)(C1)C2` [Compound 169, 2-(4-chloro-3-fluorophenoxy)-N-{3-[4-({[6-(trifluoromethyl)pyridin-3-yl]oxy}methyl)-1H-imidazol-2-yl]bicyclo[1.1.1]pentan-1-yl}acetamide] was run?
**A.** < 5.70

**Q.** With `O=C(COc1ccc(Cl)c(F)c1)NC12CC(c3nnc(Oc4cccc(F)c4)o3)(C1)C2` [Compound 138, 2-(4-chloro-3-fluorophenoxy)-N-{3-[5-(3-fluorophenoxy)-1,3,4-oxadiazol-2-yl]bicyclo[1.1.1]pentan-1-yl}acetamide] as the compound, how does the pEC50 read?
**A.** 6.60 to 7.30

**Q.** With `Cc1cc(OCC(=O)NC23CC(c4nc(COc5ccc(Cl)cc5)no4)(C2)C3)ccc1Cl` [Compound 104, 2-(4-chloro-3-methylphenoxy)-N-(3-{3-[(4-chlorophenoxy)methyl]-1,2,4-oxadiazol-5-yl}bicyclo[1.1.1]pentan-1-yl)acetamide] as the compound, how does the pEC50 read?
**A.** 6.00 to 6.60

**Q.** With `O=C(COc1ccc(Cl)c(F)c1)NC12CC(c3nnc(COc4cnc5cc[nH]c5c4)o3)(C1)C2` [Compound 149, 2-(4-chloro-3-fluorophenoxy)-N-[3-(5-{[(1H-pyrrolo[3,2-b]pyridin-6-yl)oxy]methyl}-1,3,4-oxadiazol-2-yl)bicyclo[1.1.1]pentan-1-yl]acetamide] as the compound, how does the pEC50 read?
**A.** 5.70 to 6.00

**Q.** `O=C(COc1ccc(Cl)c(F)c1)NC12CC(c3nnc(COc4ccc(C(F)(F)F)nc4)o3)(C1)C2` [Compound 141, 2-(4-chloro-3-fluorophenoxy)-N-{3-[5-({[6-(trifluoromethyl)pyridin-3-yl]oxy}methyl)-1,3,4-oxadiazol-2-yl]bicyclo[1.1.1]pentan-1-yl}acetamide] was tested. Which pEC50 did it give?
**A.** 6.60 to 7.30

**Q.** With `Cc1ccccc1Oc1nnc(C23CC(NC(=O)COc4ccc(Cl)c(F)c4)(C2)C3)o1` [Compound 134, 2-(4-chloro-3-fluorophenoxy)-N-{3-[5-(2-methylphenoxy)-1,3,4-oxadiazol-2-yl]bicyclo[1.1.1]pentan-1-yl}acetamide] as the compound, how does the pEC50 read?
**A.** 6.00 to 6.60

**Q.** `O=C(COc1ccc(Cl)cc1F)NC12CC(c3nc(COc4ccc(Cl)cc4)no3)(C1)C2` [Compound 111, 2-(4-chloro-2-fluorophenoxy)-N-(3-{3-[(4-chlorophenoxy)methyl]-1,2,4-oxadiazol-5-yl}bicyclo[1.1.1]pentan-1-yl)acetamide] was tested. Which pEC50 did it give?
**A.** 6.60 to 7.30

**Q.** `COc1ccc(OCc2nnc(C34CC(NC(=O)COc5ccc(Cl)c(F)c5)(C3)C4)o2)c(C)n1` [Compound 151, 2-(4-chloro-3-fluorophenoxy)-N-[3-(5-{[(6-methoxy-2-methylpyridin-3-yl)oxy]methyl}-1,3,4-oxadiazol-2-yl)bicyclo[1.1.1]pentan-1-yl]acetamide] was tested. Which pEC50 did it give?
**A.** 5.70 to 6.00

**Q.** How did the pEC50 turn out when `COc1ccccc1Oc1nnc(C23CC(NC(=O)COc4ccc(Cl)c(F)c4)(C2)C3)o1` [Compound 124, 2-(4-chloro-3-fluorophenoxy)-N-{3-[5-(2-methoxyphenoxy)-1,3,4-oxadiazol-2-yl]bicyclo[1.1.1]pentan-1-yl}acetamide] was run?
**A.** < 5.70

Reference: patent publication US10864196B2, “Modulators of the integrated stress pathway” (Calico Life Sciences LLC, priority 2016, dated 2020)
